# Results from patent publication US20160168195A1, “OLIGOPEPTIDES AND PROCESS FOR PREPARATION THEREOF” (Council of Scientific & Industrial Research, priority 2011, published 2016).
# What was measured:
# [1] = test system: human cervical cancer cell line (HeLa); test: Determination of IC50 in cancer cell lines (cell counting, trypan blue), HeLa; type: cell-based; conditions: 24 h with compound (1-40 nM), inhibition of cell proliferation, read-out: IC50 against He La cells
# Description: (§1) Then the medium was replaced with fresh medium containing vehicle (0.1% DMSO) or different concentrations of compounds (1-40 nM) and the cells were grown for an additional 24 h. Both attached and floating cells were harvested and counted after staining with trypan blue (Rathinasamy et al, BMC Cancer 2010; 10:213). Percentage inhibition of cell proliferation was plotted against compound concentration using Origin Pro 7.5 software (Table 2).
# MDA-MB-231 cells = test: Determination of IC50 in cancer cell lines (cell counting, trypan blue), MDA-MB-231; type: cell-based, human; conditions: MDA-MB-231 (highly metastatic breast cancer)
# Description: as §1
# MCF-7 cells = test: Determination of IC50 in cancer cell lines (cell counting, trypan blue), MCF-7; type: cell-based, human; conditions: MCF-7 (breast cancer)
# Description: as §1
# HeLa cells [2] = test: Apoptosis by annexin V and propidium iodide staining; type: cell-based, human; conditions: HeLa, 7, 15, 30 nM, 24 h
# Description: (§2) After 40 h of incubation, cells were trypsinized and collected by centrifugation. After washing pellet twice in PBS, the cells were lysed in buffer (50 mM Tris pH 8.0, 10 mM EDTA, 0.5% sarcosine, and 0.5 mg/mL proteinase K), and incubated at 50° C. for 1 h in the heating block. RNase A (1 mg/mL) was added and incubation was further extended for 1 h. The samples were allowed to come to 25° C. Gel electrophoresis was done using 2% agarose and the fragmented genomic DNA visualized after staining with ethidium bromide using UV gel documentation system (FIG. 2) (Rathinasamy et al, FEBS J 2006; 273:4114). HeLa cells were incubated with different concentrations of compound 5 (7, 15 and 30 nM) for 24 h. Cells were stained with annexin V and propidium iodide. The number of cells undergoing apoptosis was estimated by counting the annexin V and propidium iodide positive cells (FIG. 13).
# HeLa cells [3] = test: Apoptosis detection by DNA fragmentation assay; type: cell-based, human; conditions: HeLa, 7, 15, 30 nM, 40 h
# Description: as §2
# Goat brain tubulin = test: Microtubule polymerization assay (light scattering); type: biochemical; conditions: tubulin 10 μM, 30 min, compared with compounds 1, 2, 3
# Description: Microtubule polymerization assay: Goat brain tubulin (10 μM) was incubated without or with different compounds 1, 2, 3 and compound 5 (5 μM) in microtubule assembly buffer (1 M monosodium glutamate, 3 mM MgCl2, 1 mM EGTA and 25 mM PIPES pH 6.8) on ice for 20 minutes. Then, GTP (1 mM) was added to the reaction mixture. The assembly of tubulin was monitored at 37° C. using a spectrofluorometer for 30 min. Similar experiment was done with compound 5 (1, 5, 7 and 10 μM). MAPs-rich tubulin (1 mg/mL) was incubated without or with different concentrations of compound 5 (1, 3, 5 and 10 μM) in PEM buffer (25 mM pipes pH 6.8 containing 3 mM MgCl2 and 1mM EGTA) for 15 min on ice and then, 1 mM GTP was added to the reaction mixture. The effect of D1, D2, D3 and D5 on the assembly kinetics was monitored as described above for purified tubulin (FIG. 3) (Gupta and Panda, Biochemistry 2002; 41:13029) to study depolymerization of microtubules which is a mechanism of anticancer activity.
# [4] = test system: microtubules of HeLa cells; test: Effect on interphase and mitotic microtubules of HeLa cells (immunostaining); type: cell-based, human
# Description: Effect of Compound 5 on interphase and mitotic microtubules of HeLa cells: HeLa cells were seeded at a density of 0.6×10^5 cells/mL and were grown as monolayer on glass cover slips. Compounds diluted in Dimethyl sulfoxide (DMSO) (0.1% final concentration) were added to the culture medium 24 h after seeding. Then, the medium was replaced with fresh medium containing vehicle (0.1% DMSO) or different concentrations (7, 15, 30 nM) of compound 5 and the incubation continued for further 24 h. The cells were then fixed with 3.7% formaldehyde at 37° C. for 30 min and immunostained using tubulin antibody (FIGS. 4 and 5) (Mohan R and Panda D, Cancer Res. 2008, 68: 6181). The DNA was stained using Hoechst 33258 dye. The images were visualized by TE Eclipse 2000U fluorescence microscope (Nikon, Tokyo, Japan) and analyzed with Image-Pro Plus software.
# [5] = test system: solid tumors and soft tissue sarcomas; conditions: cited from earlier work
# [6] = in vivo; cited from earlier work
compound,measurement,setting,value
"CC[C@H](C)C(/C=C/C(=O)NCC1O[C@@H](C(=O)N[C@@H](Cc2ccccc2)C2=NCCS2)[C@@H](OC)[C@@H]1OC)N(C)C(=O)[C@@H](NC(=O)[C@@H](NC)C(C)C)C(C)C (stereo partly drawn) [Compound 1, Dov(R^1═H)-Val-(4S,5S)-Dil(X,Y═CH)-SAA(2R)-Doe(R^2=2-(4,5-dihydrothiazolyl), n=1)]",IC50,[1],8.7 nM
"CC[C@H](C)C(/C=C/C(=O)NCC1O[C@@H](C(=O)N[C@@H](Cc2ccccc2)C2=NCCS2)[C@@H](OC)[C@@H]1OC)N(C)C(=O)[C@@H](NC(=O)[C@H](C(C)C)N(C)C)C(C)C (stereo partly drawn) [Compound 2, Dov(R^1=Me)-Val-(4S,5S)-Dil(X,Y═CH)-SAA(2R)-Doe(R^2=2-(4,5-dihydrothiazolyl), n=1)]",IC50,[1],8.8 nM
"CC[C@H](C)C([C@H](CC(=O)NCC1O[C@H](C(=O)N[C@@H](Cc2ccccc2)c2nccs2)[C@@H](OC)[C@@H]1OC)OC)N(C)C(=O)[C@@H](NC(=O)[C@@H](NC)C(C)C)C(C)C (stereo partly drawn) [Compound 3, Dov(R^1═H)-Val-(3S,4S,5S)-Dil(X═C(OCH3)H,Y═CH2)-SAA(2S)-Doe(R^2=2-(thiazolyl), n=1)]",IC50,[1],9.9 nM
"CC[C@H](C)C([C@H](CC(=O)NCC1O[C@H](C(=O)N[C@@H](Cc2ccccc2)c2nccs2)[C@@H](OC)[C@@H]1OC)OC)N(C)C(=O)[C@@H](NC(=O)[C@H](C(C)C)N(C)C)C(C)C (stereo partly drawn) [Compound 4, Dov(R^1=Me)-Val-(3S,4S,5S)-Dil(X═C(OCH3)H,Y═CH2)-SAA(2S)-Doe(R^2=2-(thiazolyl), n=1)]",IC50,[1],16 nM
"CC[C@H](C)C([C@@H](CC(=O)NCC1O[C@H](C(=O)NCCc2ccccc2)[C@@H](OC)[C@@H]1OC)OC)N(C)C(=O)[C@@H](NC(=O)[C@@H](NC)C(C)C)C(C)C (stereo partly drawn) [Compound 5, Dov(R^1═H)-Val-(3R,4S,5S)-Dil(X═C(OCH3)H,Y═CH2)-SAA(2S)-Doe(R^2═H, n=1)]",IC50,[1],6.8 nM
same,inhibition of proliferation of MDA-MB-231 cells (in words),MDA-MB-231 cells,inhibited proliferation
same,IC50,"MDA-MB-231 cells; 24 h, read-out: IC50 values for compound 5, MDA-MB-231 cells",13 ± 5 nM
same,inhibition of proliferation of MCF-7 cells (in words),MCF-7 cells,inhibited proliferation
same,IC50,"MCF-7 cells; 24 h, read-out: IC50 values for compound 5, MCF-7 cells",15 ± 7 nM
same,"induction of apoptosis (Annexin V and PI staining, in words)",HeLa cells [2],induced apoptosis
same,genomic DNA fragmentation (in words),HeLa cells [3],DNA fragmentation
same,genomic DNA fragmentation (in words),HeLa cells [3]; listed as D5,caused genomic DNA fragmentation
same,"effect on assembly of purified tubulin, relative potency (in words)",Goat brain tubulin,maximum potency
same,effect on interphase microtubules of HeLa cells (in words),"[4]; 7, 15, 30 nM, 24 h",perturbed microtubule network
same,effect on mitotic microtubules of HeLa cells (in words),"[4]; 7, 15, 30 nM, 24 h",perturbed microtubule network
same,depolymerization of interphase and mitotic microtubules (in words),[4]; at 15 to 30 nM,showed depolymerization of interphase and mitotic microtubules
"CC[C@H](C)C([C@@H](CC(=O)NCC1O[C@@H](C(=O)NCCc2ccccc2)[C@@H](OC)[C@@H]1OC)OC)N(C)C(=O)[C@@H](NC(=O)[C@@H](NC)C(C)C)C(C)C (stereo partly drawn) [Compound 6, Dov(R^1═H)-Val-(3R,4S,5S)-Dil(X═C(OCH3)H,Y═CH2)-SAA(2R)-Doe(R^2═H, n=1)]",IC50,[1],15 nM
"CC[C@H](C)C([C@H](O)CC(=O)NCC1O[C@@H](C(=O)NCc2ccccc2)[C@@H](OC)[C@@H]1OC)N(C)C(=O)[C@@H](NC(=O)[C@@H](NC)C(C)C)C(C)C (stereo partly drawn) [Compound 7, Dov(R^1═H)-Val-(3R,4S,5S)-Dil(X═C(OH)H,Y═CH2)-SAA(2R)-Doe(R^2═H, n=0)]",IC50,[1],16 nM
"CC[C@H](C)C([C@H](O)CC(=O)NCC1O[C@H](C(=O)NCc2ccccc2)[C@@H](OC)[C@@H]1OC)N(C)C(=O)[C@@H](NC(=O)[C@@H](NC)C(C)C)C(C)C (stereo partly drawn) [Compound 8, Dov(R^1═H)-Val-(3R,4S,5S)-Dil(X═C(OH)H,Y═CH2)-SAA(2S)-Doe(R^2═H, n=0)]",IC50,[1],12 nM
Dolastatin-10,responses in phase I and II clinical trials (in words),"[5]; variety of solid tumors and soft tissue sarcomas, Von Mehren et al 2004",did not demonstrate any responses
Dolastatin-15,side effects (in words),[6],severe side effects such as arterial hypertension and myocardial infarction
TZT-1027,activity in Phase II trials (in words),"[5]; Phase II, Patel et al 2006",no activity
